Source: PubChem BioAssay AID248 (DTP/NCI, 2004)
Where “and” joins values, the source holds several entries; their conditions need not be identical. Equal entries are not always repeated. Toxic doses and inconclusive results are not listed. Rule as the data show it: active = T/C of 150% or more; inactive = T/C below 125%.

System: L1210 leukemia ip in BDF1 mice, survival T/C
Assay: NCI In Vivo Anticancer Drug Screen. Data for tumor model L1210 Leukemia (intraperitoneal) in B6D2F1 (BDF1) mice
Details: higher = longer survival
Method in brief: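 Survival endpoint. Drug-treated group vs vehicle group, expressed as T divided by C. Tumor passaged by transplantation.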

[1] = endpoint: mean survival time, dose: 200.0 mg/kg/injection, schedule: Q01DX001 (ip), vehicle: saline
[2] = endpoint: mean survival time, dose: 400.0 mg/kg/injection, schedule: Q01DX001 (ip), vehicle: saline
[3] = endpoint: mean survival time, dose: 100.0 mg/kg/injection, schedule: Q01DX001 (ip), vehicle: saline
[4] = endpoint: mean survival time, dose: 100.0 mg/kg/injection, schedule: Q01DX001 (ip), vehicle: Klucel (hydroxypropylcellulose) (HPC)
[5] = endpoint: mean survival time, dose: 100.0 mg/kg/injection, schedule: Q04DX003 (ip), vehicle: Klucel (hydroxypropylcellulose) (HPC)
[6] = endpoint: mean survival time, dose: 200.0 mg/kg/injection, schedule: Q01DX001 (ip), vehicle: Klucel (hydroxypropylcellulose) (HPC)
[7] = endpoint: mean survival time, dose: 200.0 mg/kg/injection, schedule: Q04DX003 (ip), vehicle: Klucel (hydroxypropylcellulose) (HPC)
[8] = endpoint: mean survival time, dose: 100.0 mg/kg/injection, schedule: Q01DX009 (ip), vehicle: saline with Tween-80
[9] = endpoint: mean survival time, dose: 100.0 mg/kg/injection, schedule: Q04DX003 (ip), vehicle: saline with Tween-80
[10] = endpoint: mean survival time, dose: 200.0 mg/kg/injection, schedule: Q01DX009 (ip), vehicle: saline with Tween-80
[11] = endpoint: mean survival time, dose: 200.0 mg/kg/injection, schedule: Q04DX003 (ip), vehicle: saline with Tween-80
[12] = endpoint: mean survival time, dose: 400.0 mg/kg/injection, schedule: Q01DX009 (ip), vehicle: saline with Tween-80
[13] = endpoint: mean survival time, dose: 400.0 mg/kg/injection, schedule: Q04DX003 (ip), vehicle: saline with Tween-80
[14] = endpoint: mean survival time, dose: 100.0 mg/kg/injection, schedule: Q04DX002 (ip), vehicle: Klucel (hydroxypropylcellulose) (HPC)

Measured: T/C

c1ccc(CNc2ncnc3[nH]ncc23)cc1
inactive: endpoint: mean survival time, dose: 8.0 mg/kg/injection, schedule: Q01DX009 (ip), vehicle: saline 98 % of control | endpoint: mean survival time, dose: 16.0 mg/kg/injection, schedule: Q01DX009 (ip), vehicle: saline 103 % of control | endpoint: mean survival time, dose: 25.0 mg/kg/injection, schedule: Q01DX Z (ip), vehicle: carboxymethylcellulose (CMC) 123 % of control | endpoint: mean survival time, dose: 32.0 mg/kg/injection, schedule: Q01DX009 (ip), vehicle: saline 98 % of control | endpoint: mean survival time, dose: 50.0 mg/kg/injection, schedule: Q01DX Z (ip), vehicle: carboxymethylcellulose (CMC) 109 % of control | [1] 105 % of control | [2] 101 % of control | endpoint: mean survival time, dose: 800.0 mg/kg/injection, schedule: Q01DX001 (ip), vehicle: saline 102 % of control | endpoint: median survival time, dose: 8.0 mg/kg/injection, schedule: Q01DX009 (ip), vehicle: saline 93 % of control and 100 % of control and 118 % of control | endpoint: median survival time, dose: 16.0 mg/kg/injection, schedule: Q01DX009 (ip), vehicle: saline 100 % of control (2×) and 112 % of control | endpoint: median survival time, dose: 32.0 mg/kg/injection, schedule: Q01DX009 (ip), vehicle: saline 105 % of control and 112 % of control | endpoint: median survival time, dose: 64.0 mg/kg/injection, schedule: Q01DX009 (ip), vehicle: saline 100 % of control (2×) and 122 % of control

O=[N+]([O-])c1cccc(N(CCO)CCO)c1
inactive: endpoint: mean survival time, dose: 50.0 mg/kg/injection, schedule: Q01DX001 (ip), vehicle: saline 96 % of control | [3] 106 % of control | [1] 93 % of control | [2] 100 % of control

Cc1cc(O)ccc1C1=[N+](C)CC(C)S1 (stereo not drawn)
inactive: endpoint: mean survival time, dose: 12.5 mg/kg/injection, schedule: Q04DX002 (ip), vehicle: saline 103 % of control | endpoint: mean survival time, dose: 25.0 mg/kg/injection, schedule: Q04DX002 (ip), vehicle: saline 100 % of control | endpoint: mean survival time, dose: 50.0 mg/kg/injection, schedule: Q04DX002 (ip), vehicle: saline 103 % of control

CC(Cc1ccccc1)NC(=O)NCCCl (stereo not drawn)
inactive: endpoint: mean survival time, dose: 12.5 mg/kg/injection, schedule: Q01DX009 (ip), vehicle: Klucel (hydroxypropylcellulose) (HPC) 101 % of control | endpoint: mean survival time, dose: 25.0 mg/kg/injection, schedule: Q01DX009 (ip), vehicle: Klucel (hydroxypropylcellulose) (HPC) 101 % of control | endpoint: mean survival time, dose: 50.0 mg/kg/injection, schedule: Q01DX009 (ip), vehicle: Klucel (hydroxypropylcellulose) (HPC) 90 % of control | [4] 92 % of control | [5] 106 % of control | [6] 90 % of control | [7] 117 % of control | endpoint: mean survival time, dose: 400.0 mg/kg/injection, schedule: Q01DX001 (ip), vehicle: Klucel (hydroxypropylcellulose) (HPC) 94 % of control

COc1cc2c(cc1OC)C(=O)CC2
inactive: endpoint: mean survival time, dose: 50.0 mg/kg/injection, schedule: Q01DX001 (ip), vehicle: other 91 % of control | endpoint: mean survival time, dose: 100.0 mg/kg/injection, schedule: Q01DX001 (ip), vehicle: other 98 % of control | endpoint: mean survival time, dose: 200.0 mg/kg/injection, schedule: Q01DX001 (ip), vehicle: other 98 % of control | endpoint: mean survival time, dose: 400.0 mg/kg/injection, schedule: Q01DX001 (ip), vehicle: other 96 % of control

CC1(C)CN1C1=C(Cl)C(=O)C(N2CC2(C)C)=C(Cl)C1=O
inactive: endpoint: mean survival time, dose: 1.56 mg/kg/injection, schedule: Q04DX003 (ip), vehicle: saline 92 % of control | endpoint: mean survival time, dose: 3.12 mg/kg/injection, schedule: Q04DX003 (ip), vehicle: saline 96 % of control | endpoint: mean survival time, dose: 6.25 mg/kg/injection, schedule: Q04DX003 (ip), vehicle: saline 113 % of control | endpoint: mean survival time, dose: 12.5 mg/kg/injection, schedule: Q04DX003 (ip), vehicle: saline 101 % of control | endpoint: mean survival time, dose: 25.0 mg/kg/injection, schedule: Q04DX003 (ip), vehicle: saline 96 % of control | endpoint: mean survival time, dose: 50.0 mg/kg/injection, schedule: Q04DX003 (ip), vehicle: saline 92 % of control | endpoint: mean survival time, dose: 75.0 mg/kg/injection, schedule: Q04DX003 (ip), vehicle: saline 104 % of control | endpoint: mean survival time, dose: 115.0 mg/kg/injection, schedule: Q04DX003 (ip), vehicle: saline 104 % of control | endpoint: mean survival time, dose: 170.0 mg/kg/injection, schedule: Q04DX003 (ip), vehicle: saline 108 % of control

[O-][n+]1ccccc1CCSCCc1cccc[n+]1[O-]
inactive: [3] 101 % of control | [1] 88 % of control | [2] 97 % of control

CC/C(Cc1ccc(O)cc1)=N\N=C(N)N
inactive: endpoint: mean survival time, dose: 15.0 mg/kg/injection, schedule: Q01DX Z (ip), vehicle: methylcellulose (MC) 97 % of control | endpoint: mean survival time, dose: 30.0 mg/kg/injection, schedule: Q01DX Z (ip), vehicle: methylcellulose (MC) 94 % of control | endpoint: mean survival time, dose: 30.0 mg/kg/injection, schedule: Q01DX Z (oral), vehicle: methylcellulose (MC) 92 % of control | endpoint: mean survival time, dose: 60.0 mg/kg/injection, schedule: Q01DX Z (ip), vehicle: methylcellulose (MC) 97 % of control | endpoint: mean survival time, dose: 60.0 mg/kg/injection, schedule: Q01DX Z (oral), vehicle: methylcellulose (MC) 98 % of control | endpoint: mean survival time, dose: 240.0 mg/kg/injection, schedule: Q01DX Z (oral), vehicle: methylcellulose (MC) 93 % of control

CN(C)C(=O)Nc1cccc(OP(=O)(Oc2ccccc2)Oc2ccccc2)c1
inactive: [5] 91 % of control | [7] 94 % of control | endpoint: mean survival time, dose: 400.0 mg/kg/injection, schedule: Q04DX003 (ip), vehicle: Klucel (hydroxypropylcellulose) (HPC) 98 % of control

N#Cc1ccc(OCCCOc2ccccc2)cc1
inactive: endpoint: mean survival time, dose: 100.0 mg/kg/injection, schedule: Q01DX001 (ip), vehicle: saline with Tween-80 100 % of control | endpoint: mean survival time, dose: 200.0 mg/kg/injection, schedule: Q01DX001 (ip), vehicle: saline with Tween-80 102 % of control | endpoint: mean survival time, dose: 400.0 mg/kg/injection, schedule: Q01DX001 (ip), vehicle: saline with Tween-80 93 % of control

COc1ccc(-n2c(=O)c(N=Nc3ccc(Cl)cc3)c(O)n(-c3ccccc3Cl)c2=S)cc1
inactive: endpoint: mean survival time, dose: 50.0 mg/kg/injection, schedule: Q01DX001 (ip), vehicle: Klucel (hydroxypropylcellulose) (HPC) 106 % of control | [4] 97 % of control | [6] 95 % of control

O=[N+]([O-])c1cccc(/C=C/C=C/c2ccc(S(=O)(=O)F)cc2Cl)c1
inactive: [8] 100 % of control | [9] 94 % of control | [10] 93 % of control | [11] 95 % of control | [12] 91 % of control | [13] 90 % of control

C#CC1(OCC(CCl)OC(N)=O)CCCCC1 (stereo not drawn)
inactive: endpoint: mean survival time, dose: 25.0 mg/kg/injection, schedule: Q01DX009 (ip), vehicle: saline with Tween-80 105 % of control | endpoint: mean survival time, dose: 25.0 mg/kg/injection, schedule: Q04DX003 (ip), vehicle: saline with Tween-80 105 % of control | endpoint: mean survival time, dose: 50.0 mg/kg/injection, schedule: Q01DX009 (ip), vehicle: saline with Tween-80 105 % of control | endpoint: mean survival time, dose: 50.0 mg/kg/injection, schedule: Q04DX003 (ip), vehicle: saline with Tween-80 95 % of control | [8] 102 % of control | [9] 101 % of control | [10] 105 % of control | [11] 100 % of control | [12] 97 % of control | [13] 86 % of control

Cc1cc(C)c(NC(=O)Cc2ccccc2)cc1C
inactive: [14] 96 % of control | endpoint: mean survival time, dose: 200.0 mg/kg/injection, schedule: Q04DX002 (ip), vehicle: Klucel (hydroxypropylcellulose) (HPC) 96 % of control | endpoint: mean survival time, dose: 400.0 mg/kg/injection, schedule: Q04DX002 (ip), vehicle: Klucel (hydroxypropylcellulose) (HPC) 89 % of control

O=C(O)CCCN1C(=O)CCC1=O
inactive: endpoint: mean survival time, dose: 100.0 mg/kg/injection, schedule: Q04DX003 (ip), vehicle: saline 97 % of control | endpoint: mean survival time, dose: 200.0 mg/kg/injection, schedule: Q04DX003 (ip), vehicle: saline 95 % of control | endpoint: mean survival time, dose: 400.0 mg/kg/injection, schedule: Q04DX003 (ip), vehicle: saline 106 % of control

Cc1c(O)cccc1F
inactive: endpoint: mean survival time, dose: 25.0 mg/kg/injection, schedule: Q04DX002 (ip), vehicle: Klucel (hydroxypropylcellulose) (HPC) 98 % of control | endpoint: mean survival time, dose: 50.0 mg/kg/injection, schedule: Q04DX002 (ip), vehicle: Klucel (hydroxypropylcellulose) (HPC) 102 % of control | [14] 111 % of control and 120 % of control
